Patent publication US20100093719A1, “PHARMACOKINETICALLY IMPROVED COMPOUNDS” (SURFACE LOGIX, INC., priority 2005, published 2010)
Converted amounts (≈) assume the structure as drawn. Like-named read-outs stand apart in the source and are kept apart here.

Tests used:
PDE5 = PDE5 (Homo sapiens, UniProt O76074); test: Phosphodiesterase inhibition PDE-5 human; format: biochemical
Protocol: (§1) Phosphodiesterase inhibition was determined by methods known to one of skill in the art.

PAMPA permeability = format: in vitro ADME
Caco-2 = Caco-2 permeability; format: in vitro ADME
Excerpt: Several model systems are available, employing monolayers of various cell types, for evaluation of active transport of pharmaceutically active substances. For example, monolayers of Caco-2 intestinal epithelial cells can be used to evaluate active transport of substances between the intestine and the bloodstream. When plated on a surface which allows the flow of material from apical to basolateral and vice versa, such cells form a biological membrane which can be used to simulate physiological absorption and bio-availability. In another example, mouse brain capillary endothelial cell (MBEC) lines have been established to evaluate active transport in and out of the central nervous system. Another example of such cells is HT29 human colon carcinoma cells. Further, monolayers expressing particular transporter proteins can be established using transfected cells. For example, Sasaki et al (2002) J. Biol. Chem. 8:6497 used a double-transfected Madin-Darby canine kidney cell monolayer to study transport of organic anions.

Non-specific binding = format: in vitro ADME
Solubility = format: physicochemical
Cytotox GC50 = format: cell-based
RLM stability T1/2 = format: in vitro ADME; conditions: rat, liver microsomes
Cytotox LC50 = conditions: read-out: Cytotox LC50 Acute
PDE-5 = PDE-5 (Bos taurus, UniProt Q28156); test: Phosphodiesterase inhibition PDE-5 bovine; format: biochemical
Protocol: as §1

PDE-3 = test: Phosphodiesterase inhibition PDE-3; format: biochemical
Protocol: as §1

PDE-1 = test: Phosphodiesterase inhibition PDE-1; format: biochemical
Protocol: as §1

PDE-6 = test: Phosphodiesterase inhibition PDE-6; format: biochemical
Protocol: as §1

[1] = pH 2.7, aqueous buffer, read-out: Solubility pH 2.7
[2] = pH 7.4, aqueous buffer, read-out: Solubility pH 7.4

SMILES | IC50 (PDE5) [nM] | PAMPA Hex (PAMPA permeability) | Caco-2 AtoB (Caco-2) | Caco-2 BtoA (Caco-2) | Non-Spec Binding (Non-specific binding) [%] | solubility (Solubility; [1]) [µM] | solubility (Solubility; [2]) [µM] | Cytotox GC50 (Cytotox GC50) [nM] | CC50 (in vitro) [nM] | half-life (RLM stability T1/2) [min] | CC50 (Cytotox LC50) [nM] | IC50 (PDE-5) [nM] | IC50 (PDE-3) [nM] | IC50 (PDE-1) [nM] | IC50 (PDE-6) [nM] | PAMPA Lec (PAMPA permeability)
CCCc1nc(C)c2c(=O)[nH]c(-c3cc(S(=O)(=O)N(C)CC(=O)N4CCN(C)CC4)ccc3OCC)nn12 [Compound 7] | 0.535 | 0.18 10^−6 | 4.35 10^−6 | 35.58 10^−6 | 2.6 | > 100 | > 100 | – | – | – | – | – | – | – | – | –
CCCc1nc(C)c2c(=O)[nH]c(-c3cc(S(=O)(=O)N(C)[C@@H](C)C(=O)N(C)C)ccc3OCC)nn12 [Compound 12] | 0.298 | 13.93 10^−6 | 33.39 10^−6 | 50.43 10^−6 | 30.7 | 96 (≈ 48.4 µg/mL) | 100 (≈ 50.5 µg/mL) | 99300 | ≥ 100000 | 32.2 | 100000 | – | – | – | – | –
CCCc1nc(C)c2c(=O)[nH]c(-c3cc(S(=O)(=O)N[C@@H](C)C(=O)N(C)C)ccc3OCC)nn12 [Compound 17] | 0.66 | 0.26 10^−6 | – | – | – | 70 (≈ 34.4 µg/mL) | 78.4 (≈ 38.5 µg/mL) | 100000 | ≥ 100000 | – | – | – | – | – | – | –
CCCc1nc(C)c2c(=O)[nH]c(-c3cc(S(=O)(=O)N(CC)CC(=O)N(CC)CC)ccc3OCC)nn12 [Compound 10] | 0.32 | 67.04 10^−6 | – | – | – | 77.9 (≈ 41.5 µg/mL) | 78.5 (≈ 41.8 µg/mL) | – | – | – | – | – | – | – | – | –
CCCc1nc(C)c2c(=O)[nH]c(-c3cc(S(=O)(=O)N(C)[C@H](C)C(=O)N(C)C)ccc3OCC)nn12 [Compound 2] | 0.0395 | 18.2 10^−6 | 33.33 10^−6 | 61.33 10^−6 | 20.7 | > 100 | > 100 | 94600 | ≥ 100000 | 32.6 | 100000 | 0.101 | 507 | 13 | 0.605 | –
CCCc1nc(C)c2c(=O)[nH]c(-c3cc(S(=O)(=O)N(C)[C@H](C)C(=O)NC)ccc3OCC)nn12 [Compound 14] | 0.35 | 0.47 10^−6 | – | – | – | 62.6 (≈ 30.7 µg/mL) | 64 (≈ 31.4 µg/mL) | 88000 | ≥ 100000 | – | – | – | – | – | – | –
CCCc1nc(C)c2c(=O)[nH]c(-c3cc(S(=O)(=O)N[C@H](C)C(=O)N(C)C)ccc3OCC)nn12 [Compound 18] | 0.36 | 0.18 10^−6 | – | – | – | 70.3 (≈ 34.5 µg/mL) | 75.8 (≈ 37.2 µg/mL) | 100000 | ≥ 100000 | – | – | – | – | – | – | –
CCCc1nc(C)c2c(=O)[nH]c(-c3cc(S(=O)(=O)N(C)CC(=O)N(C)C)ccc3OCC)nn12 [Compound 1] | 0.097 | 5.49 10^−6 | 17.46 10^−6 | 48.88 10^−6 | 11.07 | > 100 | 96.1 (≈ 47.2 µg/mL) | 76700 | 75000 | 22 | 100000 | 0.122 | 986 | 25 | 3.5 | 0.128 10^−6
CCCc1nc(C)c2c(=O)[nH]c(-c3cc(S(=O)(=O)N(C)CC(=O)NC)ccc3OCC)nn12 [Compound 21] | 0.25 | 0.24 10^−6 | 5.15 10^−6 | 31.45 10^−6 | – | > 100 | > 100 | – | – | – | – | – | – | – | – | –
CCCc1nc(C)c2c(=O)[nH]c(-c3cc(S(=O)(=O)N(C)C(C)(C)C(=O)NC)ccc3OCC)nn12 [Compound 15] | 0.256 | 0.25 10^−6 | 6.8 10^−6 | 34.9 10^−6 | – | – | – | 95000 | ≥ 100000 | – | – | – | – | – | – | –
CCCc1nc(C)c2c(=O)[nH]c(-c3cc(S(=O)(=O)N(C)[C@@H](C)C(=O)NC)ccc3OCC)nn12 [Compound 13] | 0.17 | 0.42 10^−6 | – | – | – | 69.4 (≈ 34 µg/mL) | 74.6 (≈ 36.6 µg/mL) | 94000 | ≥ 100000 | – | – | – | – | – | – | –
CCCc1nc(C)c2c(=O)[nH]c(-c3cc(S(=O)(=O)N(C)C(C)(C)C(=O)N(C)C)ccc3OCC)nn12 [Compound 3] | 0.16 | 9.11 10^−6 | 28.85 10^−6 | 58.45 10^−6 | 14.3 | > 100 | > 100 | 100000 | ≥ 100000 | 72.7 | 100000 | 0.138 | 412 | 10 | 1.7 | –
CCCc1nc(C)c2c(=O)[nH]c(-c3cc(S(=O)(=O)N(C)CC(=O)N(C)CCN(C)C)ccc3OCC)nn12 [Compound 9] | 1.5 | 0.03 10^−6 | 2.33 10^−6 | 11.31 10^−6 | 9.8 | > 100 | > 100 | – | – | – | – | – | – | – | – | –
CCCc1nc(C)c2c(=O)[nH]c(-c3cc(S(=O)(=O)N(C)CC(=O)N(CC)CC)ccc3OCC)nn12 [Compound 8] | 0.78 | 21.81 10^−6 | 42.03 10^−6 | 77.41 10^−6 | 19 | > 100 | > 100 | – | – | 15 | – | – | – | – | – | –
CCCc1nc(C)c2c(=O)[nH]c(-c3cc(S(=O)(=O)N(C)CC(=O)N4CCOCC4)ccc3OCC)nn12 [Compound 6] | 0.68 | 0.78 10^−6 | 11.16 10^−6 | 55.15 10^−6 | 7.3 | > 100 | > 100 | – | – | – | – | – | – | – | – | –
CCCc1nc(C)c2c(=O)[nH]c(-c3cc(S(=O)(=O)N(C)C4(C(=O)N(C)C)CC4)ccc3OCC)nn12 [Compound 16] | 0.42 | 3.41 10^−6 | – | – | – | 74.7 (≈ 38.6 µg/mL) | 82.5 (≈ 42.6 µg/mL) | 100000 | ≥ 100000 | – | – | – | – | – | – | –
CCCc1nc(C)c2c(=O)[nH]c(-c3cc(S(=O)(=O)N4CCCC4C(=O)N(C)C)ccc3OCC)nn12 (centres unmarked) [Compound 5] | 2.3 | 13.18 10^−6 | 19.4 10^−6 | 60.2 10^−6 | – | 100 (≈ 51.7 µg/mL) | 93 (≈ 48 µg/mL) | – | – | 30.1 | – | 1.6 | – | – | – | –
CCCc1nc(C)c2c(=O)[nH]c(-c3cc(S(=O)(=O)N(C)CC(=O)N(C)CC(=O)N(C)C)ccc3OCC)nn12 [Compound 4] | 0.11 | 0.47 10^−6 | 2.97 10^−6 | 25.95 10^−6 | 7 | 112 (≈ 62.9 µg/mL) | 109 (≈ 61.2 µg/mL) | – | – | 64 | – | 0.084 | – | – | – | 0.056 10^−6
CCCc1nc(C)c2c(=O)[nH]c(-c3cc(S(=O)(=O)NC(C)(C)C(=O)N(C)C)ccc3OCC)nn12 [Compound 19] | 0.193 | 0.17 10^−6 | 2.43 10^−6 | 33 10^−6 | – | > 100 | 7.1 (≈ 3.58 µg/mL) | 100000 | ≥ 100000 | – | – | – | – | – | – | –
